Experimental data reported in patent US20260217708A1, “FUSED BENZAZEPINE DERIVATIVES FOR USE IN THE TREATMENT OF CANCER AND EPILEPSY” (UCB BIOPHARMA SRL, priority 2023, published 2026).

Experiments:
system Xc^− [1] = target: T1, system Xc^− (Homo sapiens, UniProt Q9UPY5); assay: Cystine-induced glutamate release assay; format: cell-based; parameters: endogenous in cells; host or cells: H4 cells; settings: H4 cells, sodium-free HEPES buffer, 50 μM L-Cystine, 2 hours, Amplex Red glutamate readout; read-out: pIC50 Cystine-induced glutamate release assay (converted)
T1 sequence (Q9UPY5 1-501): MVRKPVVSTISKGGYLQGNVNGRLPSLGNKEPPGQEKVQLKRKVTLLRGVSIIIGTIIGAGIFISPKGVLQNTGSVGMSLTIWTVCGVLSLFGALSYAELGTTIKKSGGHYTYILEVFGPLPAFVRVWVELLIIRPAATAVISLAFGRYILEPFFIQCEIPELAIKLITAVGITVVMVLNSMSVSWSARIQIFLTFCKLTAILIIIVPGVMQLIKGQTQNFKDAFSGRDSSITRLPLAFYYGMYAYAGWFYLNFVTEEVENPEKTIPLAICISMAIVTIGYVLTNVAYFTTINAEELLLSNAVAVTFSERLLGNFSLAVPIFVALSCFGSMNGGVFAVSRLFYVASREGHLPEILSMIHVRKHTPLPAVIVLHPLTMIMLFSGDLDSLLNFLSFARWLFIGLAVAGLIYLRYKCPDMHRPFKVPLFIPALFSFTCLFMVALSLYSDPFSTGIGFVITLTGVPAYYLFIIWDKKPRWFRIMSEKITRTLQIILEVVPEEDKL
T1 sequence (P08195 1-529 partner): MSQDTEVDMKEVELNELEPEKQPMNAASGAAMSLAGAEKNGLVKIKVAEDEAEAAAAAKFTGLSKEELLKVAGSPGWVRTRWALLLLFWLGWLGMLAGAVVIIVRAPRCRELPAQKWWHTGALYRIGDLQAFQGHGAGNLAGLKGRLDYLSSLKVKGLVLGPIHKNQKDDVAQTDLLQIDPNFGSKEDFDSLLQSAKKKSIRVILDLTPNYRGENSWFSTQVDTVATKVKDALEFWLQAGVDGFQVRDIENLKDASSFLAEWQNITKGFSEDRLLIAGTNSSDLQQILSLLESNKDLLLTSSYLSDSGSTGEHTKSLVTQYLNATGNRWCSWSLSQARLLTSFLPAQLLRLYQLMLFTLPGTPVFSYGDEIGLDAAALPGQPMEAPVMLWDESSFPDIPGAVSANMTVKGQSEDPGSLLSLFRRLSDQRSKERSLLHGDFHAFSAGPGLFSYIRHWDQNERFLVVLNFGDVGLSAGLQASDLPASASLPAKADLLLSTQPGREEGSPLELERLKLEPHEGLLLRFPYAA
Method in brief: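 IC50 (reported as pIC50) normalized to DMSO 1% and Erastin 50 μM controls, from Amplex Red fluorescence of glutamate exported into supernatant. H4 cells were washed into sodium-free buffer to exclude EAAT transport, then given compound with 50 μM L-cystine for 2 h in the incubator.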

system Xc^− [2] = target: T1, system Xc^−; assay: [^14C]L-Cystine uptake assay; format: cell-based; parameters: endogenous in cells; host or cells: H4 cells; settings: H4 cells, sodium-free HEPES buffer, 0.5 μM L-[14C]Cystine and 4.5 μM L-Cystine, 1 hour at 37° C.; read-out: pIC50 [^14C] L-Cystine uptake assay (converted)
Method in brief: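 Compound effect is given as pIC50, taken between controls of 1% DMSO and 50 μM Erastin. Human H4 cells were pretreated 15 min with compound in sodium-free buffer, then took up 0.5 μM [14C]cystine with 4.5 μM cold cystine for 1 hour at 37° C, read by scintillation proximity counting.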

O=C(CN1C(=O)Cc2ncccc2-c2cnc(Cl)cc21)Nc1ccc(C(F)(F)F)cc1 [#25, 2-(5-chloro-9-oxo-4,8,12-triazatricyclo[9.4.0.0^2,7]pentadeca-1(11),2(7),3,5,12,14-hexaen-8-yl)-N-[4-(trifluoromethyl)phenyl]acetamide] was tested, and the IC50 (system Xc^− [1]) was 100 to 501 nM and the IC50 (system Xc^− [2]) was 100 to 501 nM.
For Cc1cc2c(c(=O)o1)-c1cccnc1C(C)C(=O)N2CC(=O)Nc1ccc(C(F)F)cc1 (single isomer, unassigned) [#360, N-[4-(difluoromethyl)phenyl]-2-[5,10-dimethyl-3,9-dioxo-4-oxa-8,12-diazatricyclo[9.4.0.0^2,7]pentadeca-1(15),2(7),5,11,13-pentaen-8-yl]acetamide], the IC50 (system Xc^− [1]) was 15.8 to 39.8 nM and the IC50 (system Xc^− [2]) was 39.8 to 100 nM.
Cc1cc2c(c(F)n1)-c1sccc1CC(=O)N2CC(=O)Nc1ccc(C(F)(F)F)cc1 [#42, 2-(14-fluoro-12-meth-yl-8-oxo-3-thia-9,13-diazatricyclo[8.4.0.0^2,6]tetradeca-1(10),2(6), 4,11,13-pentaen-9-yl)-N-[4-(trifluorometh-yl)phenyl]acetamide] showed an IC50 (system Xc^− [1]) of 39.8 to 100 nM and an IC50 (system Xc^− [2]) of 39.8 to 100 nM.
In the case of Cc1cc2c(c(F)n1)-c1cc(F)cnc1C(C)C(=O)N2CC(=O)Nc1ccc(C(F)(F)F)nc1 (single isomer, unassigned) [#262, 2-[3,14-difluoro-5,10-dimethyl-9-oxo-4,8,12-triazatricyclo[9.4.0.0^2,7]pentadeca-1(11),2(7),3,5,12,14-hexaen-8-yl]-N-[6-(trifluoromethyl)-3-pyridyl]acetamide], the IC50 (system Xc^− [1]) is reported as 15.8 to 39.8 nM and the IC50 (system Xc^− [2]) is reported as 15.8 to 39.8 nM.
In the case of Cc1cc2c(c(F)n1)-c1cccnc1[C@@H](C)C(=O)N2CC(=O)Nc1ccc(Cl)cc1F [#242, N-(4-chloro-2-fluoro-phenyl)-2-[(10R)-3-fluoro-5,10-dimethyl-9-oxo-4,8,12-triazatricyclo[9.4.0.0^2,7]pentadeca-1(15),2,4,6,11,13-hexaen-8-yl]acetamide], the IC50 (system Xc^− [1]) is reported as 15.8 to 39.8 nM and the IC50 (system Xc^− [2]) is reported as 39.8 to 100 nM.
Cc1cc2c(c(F)n1)-c1cc(F)cnc1C(C)C(=O)N2CC(=O)Nc1ccc(C(C)(F)F)cc1 (single isomer, unassigned) [#263, 2-[3,14-difluoro-5,10-dimethyl-9-oxo-4,8,12-triazatricyclo[9.4.0.0^2,7]pentadeca-1(15),2,4,6,11,13-hexaen-8-yl]-N-[4-(1,1-difluoroethyl)phenyl]acetamide] was tested, and the IC50 (system Xc^− [1]) was < 15.8 nM and the IC50 (system Xc^− [2]) was < 15.8 nM.
For Cc1cc2c(c(Cl)n1)-c1cccnc1N(C)C(=O)N2CC(=O)Nc1ccc(C(F)(F)F)cc1 [#126, 2-(3-chloro-5,10-dimethyl-9-oxo-4,8,10,12-tetrazatricyclo[9.4.0.0^2,7]pentadeca-1(11),2,4,6,12,14-hexaen-8-yl)-N-[4-(trifluoromethyl)phenyl]acetamide], the IC50 (system Xc^− [1]) was 15.8 to 39.8 nM and the IC50 (system Xc^− [2]) was < 15.8 nM.
O=C(CN1C(=O)Cc2ccccc2-c2cnc(CO)cc21)Nc1ccc(C(F)(F)F)cc1 [#60, 2-[3-(hydroxymethyl)-6-oxo-7H-pyrido[4,3-d][3]benzazepin-5-yl]-N-[4-(trifluoromethyl)phenyl]acetamide] was tested, and the IC50 (system Xc^− [1]) was 100 to 501 nM and the IC50 (system Xc^− [2]) was 100 to 501 nM.
Compound Cc1cc2c(c(C(F)F)n1)-c1ccccc1CC(=O)N2CC(=O)Nc1ccc(C(F)(F)F)cc1 [#56, 2-[1-(difluoromethyl)-3-methyl-6-oxo-7H-pyrido[4,3-d][3]benzazepin-5-yl]-N-[4-(trifluoromethyl)phenyl]acetamide] has an IC50 (system Xc^− [1]) of 39.8 to 100 nM and an IC50 (system Xc^− [2]) of 39.8 to 100 nM.
In the case of CC1C(=O)N(CC(=O)Nc2ccc(C(F)F)cc2)c2cc(C3(F)CC3)ncc2-c2cc(F)cnc21 (single isomer, unassigned) [#325, N-[4-(difluoromethyl)phenyl]-2-[14-fluoro-5-(1-fluorocyclopropyl)-10-methyl-9-oxo-4,8,12-triazatricyclo[9.4.0.0^2,7]pentadeca-1(11),2,4,6,12,14-hexaen-8-yl]acetamide], the IC50 (system Xc^− [1]) is reported as 15.8 to 39.8 nM and the IC50 (system Xc^− [2]) is reported as < 15.8 nM.
Compound Cc1cc2c(c(F)n1)-c1cncc(F)c1C(C)C(=O)N2CC(=O)Nc1ccc(C(F)(F)F)cc1 (stereo not shown) [#171, 2-(3,12-difluoro-5,10-dimethyl-9-oxo-4,8,14-triazatricyclo[9.4.0.0^2,7]pentadeca-1(11),2(7),3,5,12,14-hexaen-8-yl)-N-[4-(trifluoromethyl)phenyl]acetamide] has an IC50 (system Xc^− [1]) of 39.8 to 100 nM and an IC50 (system Xc^− [2]) of 15.8 to 39.8 nM.
In the case of Cc1cc2c(c(F)n1)-c1ncc(F)cc1C(C)C(=O)N2CC(=O)Nc1ccc(Cl)c(F)c1 (single isomer, unassigned) [#303, N-(4-chloro-3-fluoro-phenyl)-2-[5,15-difluoro-8,13-dimethyl-9-oxo-3,10,14-triazatricyclo[9.4.0.0^2,7]pentadeca-1(15),2,4,6,11,13-hexaen-10-yl]acetamide], the IC50 (system Xc^− [1]) is reported as < 15.8 nM and the IC50 (system Xc^− [2]) is reported as 15.8 to 39.8 nM.
COCC1C(=O)N(CC(=O)Nc2ccc(C(F)(F)F)cc2)c2cc(C)nc(Cl)c2-c2ccccc21 (stereo not shown) [#122, 2-[1-chloro-7-(methoxymethyl)-3-methyl-6-oxo-7H-pyrido[3,4-a][3]benzazepin-5-yl]-N-[4-(trifluoromethyl)phenyl]acetamide] was tested, and the IC50 (system Xc^− [1]) was 100 to 501 nM and the IC50 (system Xc^− [2]) was 39.8 to 100 nM.
With Cc1cc2c(cn1)-c1ccc(F)cc1CC(=O)N2CC(=O)Nc1ccc(C(F)(F)F)cc1 [#34, 2-(9-fluoro-3-methyl-6-oxo-7H-pyrido[4,3-d][3]benzazepin-5-yl)-N-[4-(trifluoro-methyl)phenyl] acetamide] the IC50 (system Xc^− [1]) was 100 to 501 nM and the IC50 (system Xc^− [2]) was 39.8 to 100 nM.
COc1cc2c(c(F)n1)-c1cccnc1C(C)C(=O)N2CC(=O)Nc1ccc(C(F)(F)F)cc1 (stereo not shown) [#182, 2-(3-fluoro-5-methoxy-10-methyl-9-oxo-4,8,12-triazatricyclo[9.4.0.0^2,7]pentadeca-1(11),2(7),3,5,12,14-hexaen-8-yl)-N-[4-(trifluoromethyl)phenyl]acetamide] showed an IC50 (system Xc^− [1]) of 15.8 to 39.8 nM and an IC50 (system Xc^− [2]) of 15.8 to 39.8 nM.
In the case of Cc1cc2c(c(F)n1)-c1cccnc1[C@@H](C)C(=O)N2CC(=O)Nc1ccc(F)cc1 [#233, 2-[(10R)-3-fluoro-5,10-dimethyl-9-oxo-4,8,12-triazatricyclo[9.4.0.0^2,7]pentadeca-1(15),2,4,6,11,13-hexaen-8-yl]-N-(4-fluorophenyl)acetamide], the IC50 (system Xc^− [1]) is reported as 39.8 to 100 nM and the IC50 (system Xc^− [2]) is reported as 15.8 to 39.8 nM.
In the case of COCCN(C)c1cc2c(c(F)n1)-c1cccnc1C(C)C(=O)N2CC(=O)Nc1ccc(Cl)c(F)c1 (stereo not shown) [#264, N-(4-chloro-3-fluoro-phenyl)-2-[3-fluoro-5-[2-methoxyethyl(methyl)amino]-10-methyl-9-oxo-4,8,12-triazatricyclo[9.4.0.0^2,7]pentadeca-1(15),2(7),3,5,11,13-hexaen-8-yl]acetamide], the IC50 (system Xc^− [1]) is reported as 15.8 to 39.8 nM and the IC50 (system Xc^− [2]) is reported as < 15.8 nM.
O=C(CN1C(=O)Cc2ncccc2-c2c(F)cncc21)Nc1ccc(C(F)(F)F)cc1 [#78, 2-(3-fluoro-9-oxo-5,8,12-triazatricyclo[9.4.0.0^2,7]pentadeca-1(11),2(7),3,5,12,14-hexaen-8-yl)-N-[4-(trifluoromethyl)-phenyl]acetamide] showed an IC50 (system Xc^− [1]) of 100 to 501 nM and an IC50 (system Xc^− [2]) of 100 to 501 nM.
COc1cc2c(c(OC)n1)-c1cccnc1C(C)C(=O)N2CC(=O)Nc1ccc(C(F)(F)F)cn1 (single isomer, unassigned) [#336, 2-[3,5-dimethoxy-10-methyl-9-oxo-4,8,12-triazatricyclo[9.4.0.0^2,7]pentadeca-1(15),2(7),3,5,11,13-hexaen-8-yl]-N-[5-(trifluoromethyl)-2-pyridyl]acetamide] showed an IC50 (system Xc^− [1]) of 15.8 to 39.8 nM and an IC50 (system Xc^− [2]) of 39.8 to 100 nM.
In the case of Cc1cc2c(cn1)-c1cc(F)cnc1C(C)C(=O)N2CC(=O)Nc1ccc(Cl)c(F)c1 (single isomer, unassigned) [#327, N-(4-chloro-3-fluoro-phenyl)-2-[14-fluoro-5,10-dimethyl-9-oxo-4,8,12-triazatricyclo[9.4.0.0^2,7]pentadeca-1(15),2,4,6,11,13-hexaen-8-yl]acetamide], the IC50 (system Xc^− [1]) is reported as < 15.8 nM and the IC50 (system Xc^− [2]) is reported as < 15.8 nM.
